Data reported in patent US20230250096A1, “SUBSTITUTED PHENYL-1H-PYRROLO[2,3-c] PYRIDINE DERIVATIVES” (Janssen Pharmaceutica NV, priority 2021, published 2023).
Read-outs that look alike come from different tables or passages of the source.

Tests used:
Type in all cases: cell-based, human
[1] = tested on: MEIS1 mRNA expression; test: MEIS1 mRNA expression assay (Quantigene Singleplex) in MOLM14 cells; settings: 48 hours incubation
Outline: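 Read-out: MEIS1 transcript counts, background-subtracted and divided by RPL28, expressed as fold change over DMSO-treated cells, then dose-response modelled for IC50. MOLM14 cells (3,750/well) received graded compound for 48 h before lysis and QuantiGene hybridization at 55 °C.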

[2] = tested on: MOLM14 cells; test: Proliferation assay (spheroid confluence, 8 days), MOLM14; settings: read-out: spheroid assay_MOLM14 IC50
Outline: (§1)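 Absolute IC50 derived from spheroid confluence imaged on day 8, scaled between DMSO (0%) and a cytotoxic low control such as 1 μM staurosporin, fitted with variable slope, bounds fixed at 0 and 100%. Seeding 200 cells/well (300 for KO-52), ultra-low attachment plates, 0.3% DMSO, 37° C.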

[3] = tested on: KO-52 cells; test: Proliferation assay (spheroid confluence, 8 days), KO-52 control cell line; settings: read-out: spheroid assay_KO-52 IC50
Outline: as §1

Structure (SMILES)	IC50 ([1]; Homo sapiens, MOLM-14, 48 h)	IC50 ([2]; Homo sapiens, MOLM-14, MOLM14)	IC50 ([2]; MOLM14)	IC50 [1]	IC50 ([3]; Homo sapiens)	IC50 [3]
Cc1cncc2c1c(C[C@H]1CCN(C(C)C3CCOCC3)C1)cn2-c1ccc(F)cc1C(=O)N(C)C(C)C (mixture of isomers) [Compound 49]	0.017 µM	0.003 µM			3 µM	
Cc1cncc2c1c(C[C@@H]1CCN(CC3CCOCC3)C1)cn2-c1ccc(F)cc1C(=O)N(C)C(C)C (single isomer, unassigned) [Compound 42]	0.045 µM	0.031 µM			2.8 µM	
Cc1cncc2c1c(C[C@H]1CCN(CC3CCOCC3)C1)cn2-c1ccc(F)cc1C(=O)N(C)C(C)C (single isomer, unassigned) [Compound 43]	0.024 µM	0.014 µM			3.3 µM	
Cc1cncc2c1c(C[C@@H]1CCN(CC(C)C)C1)cn2-c1ccc(F)cc1C(=O)N(C)C(C)C (single isomer, unassigned) [Compound 44]	0.043 µM	0.071 µM			4.7 µM	
Cc1cncc2c1c(C[C@H]1CCN(CC(C)C)C1)cn2-c1ccc(F)cc1C(=O)N(C)C(C)C (single isomer, unassigned) [Compound 45]	0.056 µM	0.053 µM			6.2 µM	
CC(=O)N1CCC(CN2CC[C@@H](Cc3cn(-c4ccc(F)cc4C(=O)N(C)C(C)C)c4cncc(C)c34)C2)CC1 (single isomer, unassigned) [Compound 50]	0.089 µM	0.039 µM			2.3 µM	
COCC(=O)N1CCC(CN2CCC(Cc3cn(-c4ccc(F)cc4C(=O)N(C)C(C)C)c4cncc(C)c34)C2)CC1 (single isomer, unassigned) [Compound 59]	0.009 µM	0.011 µM			2.1 µM	
Cc1cncc2c1c(CC1CCN(CC3CCN(C(=O)CC#N)CC3)C1)cn2-c1ccc(F)cc1C(=O)N(C)C(C)C (single isomer, unassigned) [Compound 60]	0.007 µM	0.013 µM			2.7 µM	
Cc1cncc2c1c(C[C@H]1CCN(C[C@H]3CC[C@H](NS(C)(=O)=O)CC3)C1)cn2-c1ccc(F)cc1C(=O)N(C)C(C)C (single isomer, unassigned) [Compound 69]	0.017 µM	0.005 µM			11 µM	
CNC(=O)[C@H]1CC[C@H](CN2CCC(Cc3cn(-c4ccc(F)cc4C(=O)N(C)C(C)C)c4cncc(C)c34)C2)CC1 (single isomer, unassigned) [Compound 70]	0.048 µM		0.04 µM		8.5 µM	
CNC(=O)[C@H]1CC[C@H](CN2CCC(Cc3cn(-c4ccc(F)cc4C(=O)N(C)C(C)C)c4cncc(C)c34)C2)CC1 (single isomer, unassigned) [Compound 71]			0.083 µM	0.048 µM		> 15 µM
COCCN(C)CCCC(C(C)C)N1CC[C@@H](Cc2cn(-c3ccc(F)cc3C(=O)N(C)C(C)C)c3cncc(C)c23)C1 (some centres unmarked) [Compound 1]	0.004 µM	0.002 µM			7.5 µM	
CC(C)C([C@H]1C[C@@H](N(C)C)C1)N1CC(Cc2cn(-c3ccc(F)cc3C(=O)N(C)C(C)C)c3cncc(Cl)c23)C1 (some centres unmarked) [Compound 41]	0.015 µM	0.014 µM			1.4 µM	
CC(=O)N1CCC(CN2CCC(Cc3cn(-c4ccc(F)cc4C(=O)N(C)C(C)C)c4cncc(C)c34)CC2)CC1 [Compound 58]	0.183 µM	0.176 µM			10.4 µM	
Cc1cncc2c1c(CC1CN(CC3CCOCC3)C1)cn2-c1ccc(F)cc1C(=O)N(C)C(C)C [Compound 61]	0.023 µM	0.01 µM			7.9 µM	
CC(=O)N1CCC(CN2CC(Cc3cn(-c4ccc(F)cc4C(=O)N(C)C(C)C)c4cncc(C)c34)C2)CC1 [Compound 63]	0.083 µM	0.053 µM			5.9 µM	
COCC(=O)N1CCC(CN2CC(Cc3cn(-c4ccc(F)cc4C(=O)N(C)C(C)C)c4cncc(C)c34)C2)CC1 [Compound 66]	0.046 µM	0.018 µM			7.7 µM	
Cc1cncc2c1c(CC1CN(CC3CCN(C(=O)CC#N)CC3)C1)cn2-c1ccc(F)cc1C(=O)N(C)C(C)C [Compound 67]	~0.068 µM	0.048 µM			12 µM	
Cc1cncc2c1c(C[C@@H]1CCN(CC3CCOCC3)C1)cn2-c1ccc(F)cc1C(=O)N(CCO)C(C)C [Compound 357]	0.015 µM	0.008 µM			3 µM	

Second part, led by results:

IC50 ([1]; Homo sapiens, MOLM-14, 48 h)	IC50 ([2]; Homo sapiens, MOLM-14, MOLM14)	IC50 ([2]; MOLM14)	IC50 [1]	Structure (SMILES)	IC50 ([3]; Homo sapiens)	IC50 [3]
0.006 µM	< 0.0018 µM			CCN(C(=O)c1cc(F)ccc1-n1cc(CC2CN(C(C(C)C)[C@H]3C[C@@H](N4C[C@H]5CN(C(C)=O)C[C@@H]5C4)C3)C2)c2c(C)cncc21)C(C)C (mixture of isomers) [Compound 38a]	0.8 µM	
0.022 µM	0.005 µM			CC(=O)N1CCN([C@H]2C[C@@H]([C@@H](C(C)C)N3CC(Cc4cn(-c5ccc(F)cc5C(=O)N(C)C(C)C)c5cncc(C)c45)C3)C2)CC1 (single isomer, unassigned) [Compound 32a]	5.5 µM	
0.005 µM	0.002 µM			CC(=O)N1C[C@@H]2CN([C@H]3C[C@@H]([C@@H](C(C)C)N4CC(Cc5cn(-c6ccc(F)cc6C(=O)N(C)C(C)C)c6cncc(Cl)c56)C4)C3)C[C@H]2C1 (single isomer, unassigned) [Compound 39a]	> 15 µM	
0.009 µM	0.003 µM			Cc1cncc2c1c(C[C@H]1CCN([C@@H](C)C3CCOCC3)C1)cn2-c1ccc(F)cc1C(=O)N(C)C(C)C (single isomer, unassigned) [Compound 49b]	4.1 µM	
0.011 µM	0.008 µM			Cc1cncc2c1c(C[C@@H]1CCN(CC3CCOCC3)C1)cn2-c1ccc(F)cc1C(=O)N(C[C@H](C)O)C(C)C (single isomer, unassigned) [Compound 365b]		
0.011 µM	0.01 µM			Cc1cncc2c1c(CC1CN([C@@H](C(C)C)[C@H]3C[C@@H](N4CCC(S(C)(=O)=O)CC4)C3)C1)cn2-c1ccc(F)cc1C(=O)N(C)C(C)C [Compound 33a]	3 µM	
0.027 µM	0.008 µM			CCN(C(=O)c1cc(F)ccc1-n1cc(CC2CN(C(C(C)C)[C@H]3C[C@@H](N4CCN(S(C)(=O)=O)CC4)C3)C2)c2c(C)cncc21)C(C)C (some centres unmarked) [Compound 37a]	0.8 µM	
